Measured values as given in patent US9573961B2, “Inhibitors of the renal outer medullary potassium channel” (Merck Sharp & Dohme Corp., priority 2012, dated 2017).
Read-outs that look alike come from different tables or passages of the source.

Tests used:
hROMK (hKir1.1) = hROMK (hKir1.1) (Homo sapiens (Human), UniProt P48048); test: Thallium Flux Assay (ROMK channel functional thallium flux, FLIPR-Tetra); type: cell-based
Procedure, shortened: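 HEK293 cells stably expressing hROMK loaded with FluxOR dye for 90 min, then incubated with compound for 30 min at 23-25 °C. Normalized to a 3 μM standard ROMK inhibitor as % fluorescence change.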

Kir1.1 (ROMK1) = Kir1.1 (ROMK1) (Homo sapiens (Human), UniProt P48048); test: Electrophysiology Assay (whole cell voltage clamp, IonWorks Quattro); type: cell-based; conditions: block during voltage step to 0 mV
Procedure, shortened: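 CHO cells stably expressing the channel, induced overnight with 1 mM sodium butyrate, were recorded in amphotericin-perforated patch mode. The test pulse was a 100 ms step to 0 mV from −70 mV, then a −70 to +70 mV ramp, applied before and after a 6 min compound incubation. Current amplitudes were compared.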

[1] = HEK293 cells stably expressing hROMK (hKir1.1), read-out: Thallium Flux IC50
[2] = Chinese hamster ovary cells stably expressing Kir1.1, read-out: Electrophysiology IC50
[3] = Electrophysiology IC50, Chinese hamster ovary cells stably expressing Kir1.1

Kir1.1 (ROMK1), sequence (P48048 whole entry): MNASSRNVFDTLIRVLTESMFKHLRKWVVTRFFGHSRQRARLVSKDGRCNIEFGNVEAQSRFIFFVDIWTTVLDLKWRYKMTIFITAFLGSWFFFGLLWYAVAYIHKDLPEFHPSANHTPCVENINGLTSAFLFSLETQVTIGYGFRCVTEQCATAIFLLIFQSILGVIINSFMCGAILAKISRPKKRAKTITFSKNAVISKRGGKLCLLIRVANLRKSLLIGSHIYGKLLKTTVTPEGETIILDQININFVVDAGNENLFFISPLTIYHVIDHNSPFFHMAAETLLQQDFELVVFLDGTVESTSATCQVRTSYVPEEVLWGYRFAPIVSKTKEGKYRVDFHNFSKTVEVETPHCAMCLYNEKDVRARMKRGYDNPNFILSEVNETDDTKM
hROMK (hKir1.1), sequence (P48048 whole entry): as above

SMILES	IC50 (hROMK (hKir1.1); [1])	IC50 (Kir1.1 (ROMK1); [2])	IC50 (Kir1.1 (ROMK1); [3])	IC50 (hROMK (hKir1.1); read-out: Thallium Flux IC50)	IC50 (hROMK (hKir1.1); Thallium Flux IC50)
COc1ccc([C@@H]2CN3CCN(C(=O)C4CCc5cc(-n6cnnn6)ccc54)C[C@H]3CO2)c(C)c1C#N (stereo partly drawn) [Example 63, 6-methoxy-2-methyl-3-[(3R,9aS)-8-{[5-(1H-tetrazol-1-yl)-2,3-dihydro-1H-inden-1-yl]carbonyl}octahydropyrazino[2,1-c][1,4]oxazin-3-yl]benzonitrile]	180 nM	450 nM			
COc1cc([C@@H]2CN3CCN(C(=O)C4CCc5cc(-n6cnnn6)ccc54)C[C@@H]3CO2)ccc1C#N (stereo partly drawn) [Example 64, 2-methoxy-4-[(3R,9aR)-8-{[5-(1H-tetrazol-1-yl)-2,3-dihydro-1H-inden-1-yl]carbonyl}octahydropyrazino[2,1-c][1,4]oxazin-3-yl]benzonitrile]	270 nM	210 nM			
COc1cc([C@@H]2CN3CCN(C(=O)C4CCc5cc(-n6cnnn6)ccc54)C[C@H]3CO2)ccc1C#N (stereo partly drawn) [Example 65, 2-methoxy-4-[(3R,9aS)-8-{[5-(1H-tetrazol-1-yl)-2,3-dihydro-1H-inden-1-yl]carbonyl}octahydropyrazino[2,1-c][1,4]oxazin-3-yl]benzonitrile]	400 nM	350 nM			
Cc1c([C@@H]2CN3CCN(C(=O)Cc4ccc(-n5cnnn5)cc4C#N)C[C@H]3CO2)ccc(F)c1C#N [Example 67, 3-[(3R,9aS)-8-{[2-cyano-4-(1H-tetrazol-1-yl)phenyl]acetyl}octahydropyrazino[2,1-c][1,4]oxazin-3-yl]-6-fluoro-2-methylbenzonitrile]	130 nM		170 nM		
Cc1c([C@@H]2CN3CCN(C(=O)Cc4ccc(-n5cnnn5)cc4C#N)C[C@@H]3CO2)ccc(F)c1C#N [Example 68, 3-[(3R,9aR)-8-{[2-cyano-4-(1H-tetrazol-1-yl)phenyl]acetyl}octahydropyrazino[2,1-c][1,4]oxazin-3-yl]-6-fluoro-2-methylbenzonitrile]	210 nM		120 nM		
Cc1c([C@@H]2CN3CCN(C(=O)Cc4ccc(-n5cnnn5)cc4Cl)C[C@@H]3CO2)ccc(F)c1C#N [Example 69, 3-[(3R,9aR)-8-{[2-chloro-4-(1H-tetrazol-1-yl)phenyl]acetyl}octahydropyrazino[2,1-c][1,4]oxazin-3-yl]-6-fluoro-2-methylbenzonitrile]			110 nM	100 nM	
Cc1c([C@@H]2CN3CCN(C(=O)Cc4ccc(-n5cnnn5)cc4Cl)C[C@H]3CO2)ccc(F)c1C#N [Example 70, 3-[(3R,9aS)-8-{[2-chloro-4-(1H-tetrazol-1-yl)phenyl]acetyl}octahydropyrazino[2,1-c][1,4]oxazin-3-yl]-6-fluoro-2-methylbenzonitrile]	250 nM		160 nM		
Cc1c([C@H]2CN3CCN(C(=O)Cc4ccc(-n5cnnn5)cc4)C[C@H]3CO2)ccc2nonc12 [Example 75, (3S,9aS)-3-(4-methyl-2,1,3-benzoxadiazol-5-yl)-8-{[4-(1H-tetrazol-1-yl)phenyl]acetyl}octahydropyrazino[2,1-c][1,4]oxazine]	210 nM	120 nM			
Cc1c([C@@H]2CN3CCN(C(=O)Cc4ccc(-n5cnnn5)cc4)C[C@H]3CO2)ccc2nonc12 [Example 76, (3R,9aS)-3-(4-methyl-2,1,3-benzoxadiazol-5-yl)-8-{[4-(1H-tetrazol-1-yl)phenyl]acetyl}octahydropyrazino[2,1-c][1,4]oxazine]	220 nM	220 nM			
O=C(Cc1ccc(-n2cnnn2)cc1)N1CCN2C[C@@H](c3ccc4nonc4c3)OC[C@@H]2C1 [Example 77, (3R,9aS)-3-(2,1,3-benzoxadiazol-5-yl)-8-{[4-(1H-tetrazol-1-yl)phenyl]acetyl}octahydropyrazino[2,1-c][1,4]oxazine]	150 nM		50 nM		
O=C(C1CCc2cc(-n3cnnn3)ccc21)N1CCN2C[C@@H](c3ccc4nonc4c3)OC[C@@H]2C1 (stereo partly drawn) [Example 78, (3R,9aS)-3-(2,1,3-benzoxadiazol-5-yl)-8-{[5-(1H-tetrazol-1-yl)-2,3-dihydro-1H-inden-1-yl]carbonyl}octahydropyrazino[2,1-c][1,4]oxazine]	210 nM	100 nM			
Cc1c([C@@H]2CN3CCN(C(=O)Cc4c(F)cc(-n5cnnn5)cc4F)C[C@@H]3CO2)ccc2c1COC2=O [Example 79, 5-[(3R,9aR)-8-{[2,6-difluoro-4-(1H-tetrazol-1-yl)phenyl]acetyl}octahydropyrazino[2,1-c][1,4]oxazin-3-yl]-4-methyl-2-benzofuran-1(3H)-one]	260 nM	190 nM			
Cc1c([C@@H]2CN3CCN(C(=O)Cc4ccc(-n5cnnn5)cc4)C[C@H]3CN2)ccc(F)c1C#N [Example 99, 3-((3R,9aR)-8-(2-(4-(1H-tetrazol-1-yl)phenyl)acetyl)octahydro-1H-pyrazino[1,2-a]pyrazin-3-yl)-6-fluoro-2-methylbenzonitrile]	70 nM	180 nM			
Cc1c([C@H]2CN3CCN(C(=O)Cc4ccc(-n5cnnn5)cc4)C[C@H]3CN2)ccc2c1COC2=O [Example 100]	430 nM		250 nM		
Cc1c([C@H]2CN3CCN(C(=O)Cc4ccc(-n5cnnn5)cc4)C[C@H]3CN2)ccc(F)c1C#N [Example 101]	60 nM		50 nM		
Cc1c([C@@H]2CN3CCN(C(=O)Cc4c(F)cc(-n5cnnn5)cc4F)C[C@H]3CN2)ccc(F)c1C#N [Example 102]			160 nM		150 nM
Cc1c([C@H]2CN3CCN(C(=O)Cc4c(F)cc(-n5cnnn5)cc4F)C[C@H]3CN2)ccc(F)c1C#N [Example 103]			80 nM		110 nM
C[C@@H]1Cc2cc([C@@H]3CN4CCN(C(=O)Cc5ccc(-n6cnnn6)cc5)C[C@H]4CN3)ccc2C(=O)O1 [Example 104]	290 nM		380 nM		
C[C@@H]1Cc2cc([C@@H]3CN4CCN(C(=O)Cc5c(F)cc(-n6cnnn6)cc5F)C[C@H]4CN3)ccc2C(=O)O1 [Example 105]	360 nM		180 nM		
